Results as given in BindingDB's records for doi:10.1021/acschembio.6b00747 (The University of Kansas, 2017).

Tests used:
[1] = molecular target: Heat shock protein HSP 90-alpha (Homo sapiens, UniProt P07900); assay: Fluorescence Polarization (FP) Assay; conditions: pH 7.3
Method: (§1) Assay buffer (25 μL, 20 mM HEPES at pH 7.3, 50 mM KCl, 5 mM MgCl2, 1 mM DTT, 20 mM Na2MoO4, 0.01% NP-40, and 0.5 mg mL−1 BGG) was added to a 96-well plate (black well, black bottom) followed by the desired compound at the indicated final concentrations in DMSO (1% DMSO final concentration). Subsequently, 10 nM recombinant cGrp94/Hsp90α and 6 nM FITC-GDA were added in 50 and 25 μL assay buffer respectively, resulting in a 100 μL final volume. Plates were incubatedfor 5 h at 4 °C on a rocker. […] Percent FITC-GDA bound was determined by assigning the DMSO millipolarization unit (mP) value as the 100% bound value and 0% for FITC-GDA in assay buffer without any protein.

Endoplasmin = Endoplasmin (Homo sapiens, UniProt P14625); assay: Fluorescence Polarization (FP) Assay; conditions: pH 7.3
Method: as §1

Endoplasmin, sequence (P14625 whole entry): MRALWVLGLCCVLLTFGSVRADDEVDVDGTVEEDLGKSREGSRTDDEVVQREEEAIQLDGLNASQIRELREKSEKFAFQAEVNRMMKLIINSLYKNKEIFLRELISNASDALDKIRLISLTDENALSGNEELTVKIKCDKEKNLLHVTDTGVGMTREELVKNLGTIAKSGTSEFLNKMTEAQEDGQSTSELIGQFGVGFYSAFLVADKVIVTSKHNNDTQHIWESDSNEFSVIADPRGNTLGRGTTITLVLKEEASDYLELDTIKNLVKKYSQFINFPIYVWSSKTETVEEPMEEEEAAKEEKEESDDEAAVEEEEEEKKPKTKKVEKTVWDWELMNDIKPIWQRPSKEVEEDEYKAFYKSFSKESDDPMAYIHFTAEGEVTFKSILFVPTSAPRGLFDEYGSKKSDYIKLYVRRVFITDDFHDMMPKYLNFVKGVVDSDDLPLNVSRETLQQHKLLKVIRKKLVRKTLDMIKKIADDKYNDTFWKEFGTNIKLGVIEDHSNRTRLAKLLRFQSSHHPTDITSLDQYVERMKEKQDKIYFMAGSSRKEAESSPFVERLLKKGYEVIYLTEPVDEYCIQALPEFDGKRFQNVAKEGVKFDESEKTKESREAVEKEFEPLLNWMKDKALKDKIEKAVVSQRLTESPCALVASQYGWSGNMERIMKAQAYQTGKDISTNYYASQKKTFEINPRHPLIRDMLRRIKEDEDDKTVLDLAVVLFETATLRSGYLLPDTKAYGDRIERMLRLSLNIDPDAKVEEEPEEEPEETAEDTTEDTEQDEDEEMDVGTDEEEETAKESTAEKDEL

| SMILES | Kd [1] | Kd (Endoplasmin) |
| --- | --- | --- |
| NC(=O)c1ccc(-n2cccc2Cc2ccccc2Cl)cc1NC1CCC(O)CC1 (stereo not given) [4-(2-(2-chlorobenzyl)-1H-pyrrol-1-yl)-2-(((1r,4r)-4-hydroxycyclohexyl)amino)benzamide (8b)] | > 100 µM | 0.83 µM |
| NC(=O)c1ccc(-n2cccc2Cc2cccc(F)c2)cc1NC1CCC(O)CC1 (stereo not given) [4-(2-(3-fluorobenzyl)-1H-pyrrol-1-yl)-2-(((1r,4r)-4-hydroxycyclohexyl)amino)benzamide (8f)] | > 100 µM | 4.53 µM |
| Cc1cccc(-c2cccn2-c2ccc(C(N)=O)c(NC3CCC(O)CC3)c2)c1 (stereo not given) [2-(((1r,4r)-4-hydroxycyclohexyl)amino)-4-(2-(m-tolyl)-1H-pyrrol-1-yl)benzamide (5c)] | > 100 µM | 9.43 µM |
| NC(=O)c1ccc(-n2cccc2Cc2ccccn2)cc1NC1CCC(O)CC1 (stereo not given) [2-(((1r,4r)-4-hydroxycyclohexyl)amino)-4-(2-(pyridin-2-ylmethyl)-1H-pyrrol-1-yl)benzamide (8o)] | > 100 µM | 14 µM |
| NC(=O)c1ccc(-n2cccc2Cc2c(F)cccc2F)cc1N[C@H]1CC[C@H](O)CC1 [4-(2-(2,6-difluorobenzyl)-1H-pyrrol-1-yl)-2-(((1r,4r)-4hydroxycyclohexyl)amino)benzamide (8n)] | – | > 25 µM |
| Cc1ccc(-c2cccn2-c2ccc(C(N)=O)c(NC3CCC(O)CC3)c2)cc1 (stereo not given) [2-(((1r,4r)-4-hydroxycyclohexyl)amino)-4-(2-(p-tolyl)-1H-pyrrol-1-yl)benzamide (5d)] | > 100 µM | 8.35 µM |
| NC(=O)c1ccc(-n2cccc2Cc2ccc(Cl)cc2)cc1NC1CCC(O)CC1 (stereo not given) [4-(2-(4-chlorobenzyl)-1H-pyrrol-1-yl)-2-(((1r,4r)-4-hydroxycyclohexyl)amino)benzamide (8d)] | > 100 µM | > 25 µM |
| NC(=O)c1ccc(-n2cccc2-c2ccccc2)cc1NC1CCC(O)CC1 (stereo not given) [2-(((1r,4r)-4-hydroxycyclohexyl)amino)-4-(2-phenyl-1H-pyrrol-1-yl)benzamide (5a)] | > 100 µM | 9.05 µM |
| NC(=O)c1ccc(-n2cccc2CCc2ccccc2)cc1NC1CCC(O)CC1 (stereo not given) [2-(((1r,4r)-4-hydroxycyclohexyl)amino)-4-(2-phenethyl-1H-pyrrol-1-yl)benzamide (9)] | > 100 µM | > 25 µM |
| NC(=O)c1ccc(-n2cccc2-c2cccnc2)cc1NC1CCC(O)CC1 (stereo not given) [2-(((1r,4r)-4-hydroxycyclohexyl)amino)-4-(2-(pyridin-3-yl)-1H-pyrrol-1-yl)benzamide (5i)] | > 100 µM | 5.5 µM |
| Cc1ccccc1-c1cccn1-c1ccc(C(N)=O)c(NC2CCC(O)CC2)c1 (stereo not given) [2-(((1r,4r)-4-hydroxycyclohexyl)amino)-4-(2-(o-tolyl)-1H-pyrrol-1-yl)benzamide (5b)] | > 100 µM | 9.9 µM |
| NC(=O)c1ccc(-n2cccc2Cc2cccc(Cl)c2)cc1NC1CCC(O)CC1 (stereo not given) [4-(2-(3-chlorobenzyl)-1H-pyrrol-1-yl)-2-(((1r,4r)-4-hydroxycyclohexyl)amino)benzamide (8c)] | > 100 µM | 2.45 µM |
| NC(=O)c1ccc(-n2cccc2-c2ccncc2)cc1NC1CCC(O)CC1 (stereo not given) [2-(((1r,4r)-4-hydroxycyclohexyl)amino)-4-(2-(pyridin-4-yl)-1H-pyrrol-1-yl)benzamide (5j)] | > 100 µM | 13.2 µM |
| NC(=O)c1ccc(-n2cccc2Cc2ccncc2)cc1NC1CCC(O)CC1 (stereo not given) [2-(((1r,4r)-4-hydroxycyclohexyl)amino)-4-(2-(pyridin-4-ylmethyl)-1H-pyrrol-1-yl)benzamide (8q)] | > 100 µM | 13.2 µM |
| NC(=O)c1ccc(-n2cccc2-c2ccccc2Cl)cc1NC1CCC(O)CC1 (stereo not given) [4-(2-(2-chlorophenyl)-1H-pyrrol-1-yl)-2-(((1r,4r)-4-hydroxycyclohexyl)amino)benzamide (5e)] | > 100 µM | – |
| NC(=O)c1ccc(-n2cccc2-c2ccccn2)cc1NC1CCC(O)CC1 (stereo not given) [2-(((1r,4r)-4-hydroxycyclohexyl)amino)-4-(2-(pyridin-2-yl)-1H-pyrrol-1-yl)benzamide (5h)] | > 100 µM | 14 µM |
| NC(=O)c1ccc(-n2cccc2Cc2cccc(O)c2)cc1NC1CCC(O)CC1 (stereo not given) [4-(2-(3-hydroxybenzyl)-1H-pyrrol-1-yl)-2-(((1r,4r)-4-hydroxycyclohexyl)amino)benzamide (8k)] | > 100 µM | > 25 µM |

More lines, now with the values ahead:

| Kd [1] | Kd (Endoplasmin) | SMILES |
| --- | --- | --- |
| > 100 µM | – | NC(=O)c1ccc(-n2cccc2Cc2ccc(O)cc2)cc1NC1CCC(O)CC1 (stereo not given) [4-(2-(4-hydroxybenzyl)-1H-pyrrol-1-yl)-2-(((1r,4r)-4-hydroxycyclohexyl)amino)benzamide (8l)] |
| > 100 µM | 0.72 µM | NC(=O)c1ccc(-n2cccc2Cc2ccccc2F)cc1NC1CCC(O)CC1 (stereo not given) [4-(2-(2-fluorobenzyl)-1H-pyrrol-1-yl)-2-(((1r,4r)-4-hydroxycyclohexyl)amino)benzamide (8e)] |
| > 100 µM | 12.9 µM | NC(=O)c1ccc(-n2cccc2Cc2ccccc2Br)cc1NC1CCC(O)CC1 (stereo not given) [4-(2-(2-bromobenzyl)-1H-pyrrol-1-yl)-2-(((1r,4r)-4-hydroxycyclohexyl)amino)benzamide (8h)] |
| > 100 µM | 10.6 µM | NC(=O)c1ccc(-n2cccc2-c2ccc(Cl)cc2)cc1NC1CCC(O)CC1 (stereo not given) [4-(2-(4-chlorophenyl)-1H-pyrrol-1-yl)-2-(((1r,4r)-4-hydroxycyclohexyl)amino)benzamide (5g)] |
| > 100 µM | 4.2 µM | Cc1ccccc1Cc1cccn1-c1ccc(C(N)=O)c(NC2CCC(O)CC2)c1 (stereo not given) [2-(((1r,4r)-4-hydroxycyclohexyl)amino)-4-(2-(2-methylbenzyl)-1H-pyrrol-1-yl)benzamide (8i)] |
| > 100 µM | 1.15 µM | COc1ccccc1Cc1cccn1-c1ccc(C(N)=O)c(NC2CCC(O)CC2)c1 (stereo not given) [2-(((1r,4r)-4-hydroxycyclohexyl)amino)-4-(2-(2-methoxybenzyl)-1H-pyrrol-1-yl)benzamide (8m)] |
| > 100 µM | – | NC(=O)c1ccc(-n2cccc2-c2cccc(Cl)c2)cc1NC1CCC(O)CC1 (stereo not given) [4-(2-(3-chlorophenyl)-1H-pyrrol-1-yl)-2-(((1r,4r)-4-hydroxycyclohexyl)amino)benzamide (5f)] |
| > 100 µM | 5.5 µM | NC(=O)c1ccc(-n2cccc2Cc2cccnc2)cc1NC1CCC(O)CC1 (stereo not given) [2-(((1r,4r)-4-hydroxycyclohexyl)amino)-4-(2-(pyridin-3-ylmethyl)-1H-pyrrol-1-yl)benzamide (8p)] |
| > 100 µM | 8.35 µM | NC(=O)c1ccc(-n2cccc2Cc2ccc(F)cc2)cc1NC1CCC(O)CC1 (stereo not given) [4-(2-(4-fluorobenzyl)-1H-pyrrol-1-yl)-2-(((1r,4r)-4-hydroxycyclohexyl)amino)benzamide (8g)] |
| > 100 µM | 1.13 µM | NC(=O)c1ccc(-n2cccc2Cc2ccccc2)cc1NC1CCC(O)CC1 (stereo not given) [4-(2-benzyl-1H-pyrrol-1-yl)-2-(((1r,4r)-4-hydroxycyclohexyl)amino)benzamide (8a)] |
